Experimental data taken from patent US9649271B2, “Hair thickening compositions and methods of use” (The Procter & Gamble Company, priority 2013, dated 2017).

Key:
[1] = Measurement of average thickness increase of single hair fibers
Experimental: The fibers are then removed and allowed to equilibrate and dry overnight. • 4) The next day, the fibers are imaged and measured for a final reading. For each experiment, untreated control and product treatment controls are ran, and at least 5 fibers are measured per treatment. • 5) In order to measure increase in thickness as a function of treatment, the […]. The average thickness increase is reported in the Table above, with measurements reported in micrometers. Viscosity Test Method

[2] = Viscosity test method (cone and plate viscometer/rheometer); type: physicochemical; settings: hair care composition (Example 1 formula) with 0.15% resorcinol of the given type, 1.89% Sepigel
Description: The viscosity of the hair care composition may be determined by a cone and plate viscometer/rheometer which measures the viscous drag resulting from the sample material contained in the gap between a rotating cone and a stationary plate. The geometry of the cone and plate may be such that the entire sample is subjected to a uniform shear rate.

SMILES | average thickness increase compared to Resorcinol Type 2 and Type 3 (in words) ([1]; Example 1 formula, different types of resorcinol substituted) | Average Thickness Increase ([1]; Example 1 formula with 0.15% resorcinol of the given type, 1.89% Sepigel, fibers treated 10 minutes, dried overnight, at least 5 fibers per treatment) [μm] | Viscosity [2] [cps]
Oc1ccc(Cl)c(O)c1 [Resorcinol 1, 4-Chlororesorcinol] | measurable average thickness increase |  | 
Oc1cccc(O)c1 [Resorcinol 3, 1,3-Dihydroxybenzene] |  | 3.5 | 15958
